Results on two molecules are retold here after paper PMC5101480 (Scientific Reports, 2016).

Assay [1] deals with OP91 in HeLa TRex Flp-In cells. The assay is described as follows: Steady state OP91 (model MLP) levels on co-expression, quantitative western blotting. The assay is classed as cell-based. The conditions noted are these: co-expression of SGTA-V5 compared with K160E/R164E mutant or PEX19 control; normalised to tubulin; n = 3; 24 h transfection, 24 h induction. The source says:
However, the ability of exogenous SGTA to enhance steady state MLP levels is offset when key residues of the carboxylate clamp, located in its TPR domain, are mutated. […] These finding are consistent with the proposal that a TPR based interaction of exogenous SGTA contributes to its effects on steady state MLP levels. […]
Figure 5 The SGTA-Rpn13 interaction alters steady state levels of a model MLP. […] Cells were then harvested directly into sample buffer and analysed by western blotting using primary antibodies to the N-terminus of opsin (OP91), the V5 tag (PEX19 and SGTA) or tubulin (loading control) in combination with secondary antibodies labelled with infrared dyes (LiCor) in order to produce quantitative signals as previously described. (B) OP91 signals were quantified (see Materials and Methods) and normalised to the tubulin loading control, values show standard errors for n = 3. […] (F) OP91 signals were quantified as described for (B), values show standard errors for n = 3. […]
(Immunoblotting shows a protein as a band on a membrane.)

For assay [2], the system named is OP91 in HeLa TRex Flp-In cells. The conditions noted are these: overexpression of exogenous SGTA, model MLPs including OP91; cited from earlier work. The text has this:
However, the ability of exogenous SGTA to enhance steady state MLP levels is offset when key residues of the carboxylate clamp, located in its TPR domain, are mutated. We recapitulated this experiment ...

Assay [3] concerns the target T1, TPR domain of SGTA (SGTA_TPR) (Homo sapiens, UniProt O43765).
T1 construct: thioredoxin A (TxA) fusion (N, cleaved yes); hexahistidine tag (N, cleaved yes); made in house; host or cells: E. coli BL21(DE3) Rosetta
The assay is described as follows: Paramagnetic relaxation enhancement (PRE) of 15N-labelled SGTA_TPR by MTSL labelled K398C Rpn13_260-407. The assay is classed as binding. The conditions noted are these: MTSL at K398C; 15N-labelled SGTA_TPR to spin labelled Rpn13 1:1.2; pH 6.0; residues Met-102, Lys-103, Glu-105, Lys-137, Ser-170, Asn-173, Ser-197, Lys-200, Ile-201, Glu-203, Ser-211. The method, then:
Using CSP experiments combined with available mutagenesis data, an initial model of a 1:1 complex was generated by a HADDOCK based semi-rigid, data-driven approach using the DMSLD pentapeptide coordinates from the solution NMR structure of Rpn13 (PDB accession code: 2KR0) and the crystal structure of SGTA_TPR (PDB accession code: 2VYI). The three lowest energy HADDOCK clusters of the SGTA_TPR/DMSLD complex were analysed (Figure S7 and Table S1). […] Proximity dependent line broadening of ^15N-labelled SGTA_TPR backbone amide signals was monitored for intermolecular paramagnetic relaxation enhancement (PRE) effects upon addition of MTSL labelled K398C Rpn13_260-407 (Fig. 4B). Significant line broadening effects were observed upon binding in backbone amide peaks of SGTA_TPR residues Met-102, Lys-103, Glu-105, Lys-137, Ser-170, Asn-173, Ser-197, Lys-200, Ile-201, Glu-203, Ser-211, all present on the lower edge of its concave surface lining the entry to the central groove (Fig. 4C,D).
The Rpn13 C-terminal residue Lys 398 was mutated to a cysteine for paramagnetic spin labelling studies. Mutant Rpn13_260-407 was treated with excess TCEP for 2 hours to ensure cysteines were reduced, followed by dialysis against 10 mM potassium phosphate pH 6.0, 100 mM NaCl buffer to remove excess TCEP. […]

T1 sequence (O43765 84-211): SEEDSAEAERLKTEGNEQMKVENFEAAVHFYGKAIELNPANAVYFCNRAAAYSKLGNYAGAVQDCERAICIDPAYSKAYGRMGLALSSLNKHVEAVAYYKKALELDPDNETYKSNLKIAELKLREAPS

In the case of “SGTA-V5: exogenous V5-tagged SGTA overexpressed from plasmid”, the “change in steady state OP91 level” value in assay [1] is given as “three-fold increase”. In assay [2], the “steady state MLP levels, earlier studies” value is “typically increases the steady-state levels of model MLPs”.

B1: K398C Rpn13_260-407: Rpn13_260-407 K398C mutant carrying site-directed paramagnetic spin-label (MTSL) (protein, UniProt Q16186 260-407, looked up, variant K398C)
chain: QPIQLSDLQSILATMNVPAGPAGGQQVDLASVLTPEIMAPILANADVQERLLPYLPSGESLPQTADEIQNTLTSPQFQQALGMFSAALASGQLGPLMCQFGLPAEAVEAANKGDVEAFAKAMQNNAKPEQKEGDTKDKCDEEEDMSLD
modifications: MTSL spin label
Consider B1, for which the “distance of paramagnetic probe from SGTA_TPR residues with significant line broadening” value in assay [3] is not above 20 Å.
